Data: US9347942B2, “Ultrasensitive cell based sensors and uses thereof” (CANVAX BIOTECH SL, priority 2010, dated 2016)

Key:
Format in all cases: cell-based
[1] = target: T1, CHRM2 (Homo sapiens, UniProt P08172); assay: Multiplex assay, Sensor B channel (CHRM2 and granzyme B) (Example 14); conditions: granzyme B substrate 1 uM
T1 construct: the entire human GPCR; mouse immunoglobulin kappa signal peptide (N); expressed in transfected cells
T1 sequence (P08172 2-466): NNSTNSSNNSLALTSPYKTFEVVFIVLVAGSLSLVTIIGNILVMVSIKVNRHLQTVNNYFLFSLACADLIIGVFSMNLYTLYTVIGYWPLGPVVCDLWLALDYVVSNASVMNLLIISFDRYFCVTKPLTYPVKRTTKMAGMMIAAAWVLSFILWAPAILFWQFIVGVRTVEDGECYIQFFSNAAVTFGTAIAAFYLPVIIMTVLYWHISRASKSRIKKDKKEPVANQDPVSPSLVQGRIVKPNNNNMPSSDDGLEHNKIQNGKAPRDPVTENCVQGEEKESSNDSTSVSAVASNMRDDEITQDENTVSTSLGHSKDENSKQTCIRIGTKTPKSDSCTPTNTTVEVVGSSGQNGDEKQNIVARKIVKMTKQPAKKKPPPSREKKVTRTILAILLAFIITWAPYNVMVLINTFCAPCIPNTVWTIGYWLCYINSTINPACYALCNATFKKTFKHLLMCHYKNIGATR
Source text: (§1) The principle of multiplex reactions is illustrated in FIG. 5. RBL2H3 cells were stably transfected with a pair of a GPCR as exocytosis modulator and a granzyme as a granule stored reporter as described in example 9. Combinations included were: hIL8 receptor (hIL8RA) and human granzyme A (Sensor A) and CHRM2 and granzyme B expressing cells of example #12 (Sensor B). Human IL8 was used as agonist of hll_8R while carbachol was used as CHRM2 agonist. […] As both substrates uses the same pair of fluorophore (FAM) and quencher (TAMRA) only one substrate could be added to reaction vessel for specific detection at 535 nm after excitation at 485 nm. […] Sensors, agonists and substrates were mixed in a total volume of 20 uL of HBSS in a black walled 384 well microplate and the microplate was incubated at 37 Celsius degrees in a BMG-Labtech microplate fluorimeter and read at 0, 15, 30, 45 and 60 minutes.

[2] = target: T2, hIL8 receptor (hIL8RA) (Homo sapiens, UniProt P25024); assay: Multiplex assay, Sensor A channel (hIL8RA and human granzyme A) (Example 14); conditions: Condition 4: Sensor A 12500 + Sensor B 5000 cells, carbachol 10 uM, no IL8, granzyme A substrate 1 uM
T2 construct: the entire human GPCR; mouse immunoglobulin kappa signal peptide (N); expressed in transfected cells
T2 sequence (P25024 3-350 limits assumed): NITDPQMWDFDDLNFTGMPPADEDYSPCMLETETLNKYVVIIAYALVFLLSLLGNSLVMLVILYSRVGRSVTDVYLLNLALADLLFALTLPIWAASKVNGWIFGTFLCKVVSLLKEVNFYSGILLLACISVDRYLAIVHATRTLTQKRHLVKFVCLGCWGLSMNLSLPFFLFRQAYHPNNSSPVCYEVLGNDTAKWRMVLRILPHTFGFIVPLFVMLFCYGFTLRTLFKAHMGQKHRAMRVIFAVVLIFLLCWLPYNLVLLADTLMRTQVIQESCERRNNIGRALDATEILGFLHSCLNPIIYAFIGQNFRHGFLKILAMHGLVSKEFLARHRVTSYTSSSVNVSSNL
Source text: as §1

[3] = target: T1, CHRM2; assay: Agonist-induced exocytosis of granzyme B, sandwich ELISA (Example 9); conditions: agonist 10 uM, 60 minutes
Source text: Human granzyme B was selected as reporter, chimeric promoter of hCMV-MoLV5′LTR as promoter for reporter expression, RBL-2H3 as hemopoyetic cells with professional regulated exocytosis and several GPCRs as exocytosis modulators under the control of Moloney Leukaemia virus 5′-LTR (MoMLV5′LTR, SEQ ID NO:3) as promoter for expression of exocytosis modulators. […] Vectors for expression of granzyme B had the chimeric promoter of hCMV-MoLV5′LTR-GranzymeB-IRES-NGFR with hygromycin resistance for stable transfections. Vectors for GPCR were electroporated first, cells were selected with neomycin at 500 ug/mL for about two weeks and cells were analysed by flow cytometry (Guava Technologies, USA) with anti-cmyc tag antibody (anti-cmyc-FITC, clone 9E10, Sigma-Aldrich, USA) for surface expression. Positive cells were separated by magnetic separation using anti-cmyc monoclonal antibody conjugated to biotin (Miltenyi Biotec, Germany) and streptavidin-MACS (Miltenyi Biotec, Germany). After growing positive fraction of cells was again analysed by flow cytometry with the anti-cmyc tag antibody. Positive cells were individually electroporated with the vector for expression human granzyme B using a microporator (Digital Bio Technology, South Korea) and after 48 hours hygromycin at 1500 ug/mL and neomycin at 500 ug/mL were added to culture for selection. After selection for about 2 weeks cells were analysed by flow cytometry (Guava Technologies, USA) with an antibody against NGFR coupled to FITC. Positive population where magnetically separated by MACS using anti-NGFR-MACS sup.R (Miltenyi Biotec, Germany). Sorted populations were again analysed again by flow cytometry to check both the expression of the GPCR with the anti-cmyc tag antibody and with anti-NGFR antibody to check granzyme B expression. […] GPCRs included were: SSTR2 and CHRM2 as alpha-i coupled GPCRs; AGTR1 and bradykinin type B1 receptor (BDKRB1) as alpha-q coupled GPCRs and AVPR2 as alpha-s coupled GPCR. […] Cells were seeded the night before experiment at 100.000 cells per well of a 96-well microplate in 100 uL of complete cell culture medium. Next day cells were washed with HBSS buffer and incubated with the ligand (agonist) at 10 uM of each GPCR in 30 uL of HBSS buffer at 37 Celsius degrees for 60 minutes and after centrifugation at 400 g for 5 minutes supernatants were analysed for human granzyme B protein by a sandwich ELISA specific for human granzyme B (Ucytech, Netherlands).

C[N+](C)(C)CCOC(N)=O [Carbachol, carbachol]
Signal to background at 30 min ([1]; Condition 7: 5000 cells Sensor B, carbachol 10 uM): 20 | Signal to background at 30 min ([1]; Condition 10: Sensor A 12500 + Sensor B 5000 cells, IL8 10 uM + carbachol 10 uM): 20 | Signal to background at 30 min [2]: 0.78 | Absorbance at maximal dilution of ELISA tested ([3]; 100.000 cells, dilution 2250, after subtraction of 0.2 blank): 0.6 | Sensitivity (minimal amount of cells needed) ([3]; granzyme B ELISA): <150 cells
